One assay deals with Cat L (UniProt P07711). The experiment in a line: Cathepsin enzyme inhibition assay (fluorogenic peptide substrate Z-Val-Val-Arg-AMC), Cathepsin L. The format is biochemical, human and mouse. In outline: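 Cathepsin L at 1 nM was mixed with compound, then started with 20 μM Z-Val-Val-Arg-AMC in pH 6.5 potassium phosphate with EDTA, Triton X-100 and 5 mM DTT. AMC fluorescence (ex 360/em 465 nm) was followed over 20 min. IC50 is given in μM.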

For another assay, the target named is Cathepsin S (UniProt P25774). The experiment in a line: Cathepsin enzyme inhibition assay (fluorogenic peptide substrate Z-Val-Val-Arg-AMC), Cathepsin S. In kind it is biochemical, human and mouse. The method, boiled down:
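Human or mouse cathepsin S (1 nM) was run in 100 mM potassium phosphate pH 6.5 with 5 mM EDTA, 0.001% Triton X-100 and 5 mM DTT. The rise in AMC fluorescence from cleavage was measured, and IC50 values were calculated by standard methods and expressed in μM.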

Setting [1] is: enzyme 1 nM, substrate 20 μM, pH 6.5; read-out: CatL IC50.
The mark [2] stands for this setting: enzyme 1 nM, substrate 20 μM, pH 6.5; read-out: CatS IC50.

Structures can show the parent of a compound that is named as a salt. Where two headings read alike, the source gives them in different places. Some results are limits rather than exact numbers.

For orientation: IC50 means the concentration that gives 50% inhibition. For `CC(C)CS(=O)(=O)[C@@H]1C[C@@H](C(=O)NC2(C#N)CC2)N(C(=O)C2(c3ccc(Cl)cc3)CC2)C1` [Example 236, (2S,4R)-1-[1-(4-Chloro-phenyl)-cyclopropanecarbonyl]-4-(2-methyl-propane-1-sulfonyl)-pyrrolidine-2-carboxylic acid (1-cyano-cyclopropyl)-amide], the values for the IC50 on Cat L (setting [1]) and on Cathepsin S (setting [2]) were at least 25000 nM and 240 nM, respectively.

`N#CCNC(=O)C12CC(S(=O)(=O)c3ccccc3)CN1CC(F)(F)C2` (centres unmarked) [Example 115, 6-Benzenesulfonyl-2,2-difluoro-tetrahydro-pyrrolizine-7a-carboxylic acid cyanomethyl-amide]: the half-inhibitory concentration (IC50) on Cat L (setting [1]) was 3470 nM; on Cathepsin S (setting [2]) it was 48 nM.

Turning to `CN1CCN(c2ccc(S(=O)(=O)[C@@H]3C[C@@H](C(=O)NC4(C#N)CC4)N(C(=O)OC(C)(C)C)C3)c(C(F)(F)F)c2)CC1` [Example 8, (2S,4R)-2-(1-Cyano-cyclopropylcarbamoyl)-4-[4-(4-methyl-piperazin-1-yl)-2-trifluoromethyl-benzenesulfonyl]-pyrrolidine-1-carboxylic acid tert-butyl ester], the IC50 at Cat L (setting [1]) is at least 25000 nM; at Cathepsin S (setting [2]) it was 0.7 nM.

Take `N#CC1(NC(=O)[C@H]2C[C@@H](S(=O)(=O)c3ccc(-n4cccn4)cc3Cl)CN2C(=O)C2(C(F)(F)F)CC2)CC1` [Example 165, (2R,4R)-4-(2-Chloro-4-pyrazol-1-yl-benzenesulfonyl)-1-(1-trifluoromethyl-cyclopropanecarbonyl)-pyrrolidine-2-carboxylic acid (1-cyano-cyclopropyl)-amide]: the values for the IC50 at Cat L (setting [1]) and at Cathepsin S (setting [2]) were at least 25000 nM and 110 nM, respectively.

For `CC(C)N1CCN(c2ccc(S(=O)(=O)[C@@H]3C[C@@H](C(=O)NC4(C#N)CC4)N(C(=O)C4(C(F)(F)F)CC4)C3)c(Cl)c2)CC1` [Example 293, (2S,4R)-4-[2-Chloro-4-(4-isopropyl-piperazin-1-yl)-benzenesulfonyl]-1-(1-trifluoromethyl-cyclopropanecarbonyl)-pyrrolidine-2-carboxylic acid (1-cyano-cyclopropyl)-amide], the half-inhibitory concentration (IC50) at Cat L (setting [1]) is 1400 nM; on Cathepsin S (setting [2]), 0.18 nM.

As for `COCCOc1ccc(S(=O)(=O)[C@@H]2C[C@@H](C(=O)NC3(C#N)CC3)N(C(=O)C3(c4ccc(Cl)cc4)CC3)C2)c(Cl)c1` [Example 342, (2S,4R)-4-[2-Chloro-4-(2-methoxy-ethoxy)-benzenesulfonyl]-1-[1-(4-chloro-phenyl)-cyclopropanecarbonyl]-pyrrolidine-2-carboxylic acid (1-cyano-cyclopropyl)-amide], the results for the IC50 on Cat L (setting [1]) and on Cathepsin S (setting [2]) were 49.5 nM and 0.08 nM, respectively.

On to `Cn1cc(-c2ccc(C3(C(=O)N4C[C@H](S(=O)(=O)c5ccc(OCC(F)(F)F)cc5Cl)C[C@H]4C(=O)NC4(C#N)CC4)CC3)cc2)cn1` [Example 288, (2S,4R)-4-[2-Chloro-4-(2,2,2-trifluoro-ethoxy)-benzenesulfonyl]-1-{1-[4-(1-methyl-1H-pyrazol-4-yl)-phenyl]-cyclopropanecarbonyl}-pyrrolidine-2-carboxylic acid (1-cyano-cyclopropyl)-amide], for which the half-maximal inhibitory concentration (IC50) was 3480 nM at Cat L (setting [1]) and 0.08 nM on Cathepsin S (setting [2]).

Regarding `N#CC1(NC(=O)[C@@H]2C[C@@H](S(=O)(=O)c3ccccc3C(F)(F)F)CN2c2cc(C3CC3)nn2-c2ccc(C(F)(F)F)cc2)CC1` [Example 363, (2S,4R)-1-[5-Cyclopropyl-2-(4-trifluoromethyl-phenyl)-2H-pyrazol-3-yl]-4-(2-trifluoromethyl-benzenesulfonyl)-pyrrolidine-2-carboxylic acid (1-cyano-cyclopropyl)-amide], the IC50 at Cat L (setting [1]) came out at 10800 nM; on Cathepsin S (setting [2]), 1.5 nM.

As for `N#CC1(NC(=O)[C@@H]2C[C@@H](S(=O)(=O)c3ccc(F)cc3Cl)CN2)CC1` [Example 144, (2S,4R)-4-(2-Chloro-4-fluoro-benzenesulfonyl)-pyrrolidine-2-carboxylic acid (1-cyano-cyclopropyl)-amide], the IC50 at Cat L (setting [1]) came out at 28200 nM; at Cathepsin S (setting [2]), 9.7 nM.

With `N#CC1(NC(=O)[C@@H]2C[C@@H](S(=O)(=O)c3ccccc3Cl)CN2C(=O)C2(c3cccc(Cl)c3)CC2)CC1` [Example 428, (2S,4R)-1-(1-(3-chlorophenyl)cyclopropanecarbonyl)-4-(2-chlorophenylsulfonyl)-N-(1-cyanocyclopropyl)pyrrolidine-2-carboxamide], the IC50 at Cat L (setting [1]) amounted to 335 nM; at Cathepsin S (setting [2]), 0.415 nM.

As for `COCC(=O)N1C[C@H](S(=O)(=O)c2ccccc2Cl)C[C@H]1C(=O)NCC#N` [Example 62, (2S,4R)-4-(2-Chloro-benzenesulfonyl)-1-(2-methoxy-acetyl)-pyrrolidine-2-carboxylic acid cyanomethyl-amide], the 50% inhibitory concentration (IC50) at Cat L (setting [1]) worked out at 21000 nM; at Cathepsin S (setting [2]), 1.2 nM.

Turning to `Cc1cc(N2C[C@H](S(=O)(=O)c3ccccc3Cl)C[C@H]2C(=O)NC2(C#N)CC2)n(-c2ccnc(Cl)c2)n1` [Example 254, (2S,4R)-4-(2-Chloro-benzenesulfonyl)-1-[2-(2-chloro-pyridin-4-yl)-5-methyl-2H-pyrazol-3-yl]-pyrrolidine-2-carboxylic acid (1-cyano-cyclopropyl)-amide], the values for the IC50 on Cat L (setting [1]) and on Cathepsin S (setting [2]) were 2260 nM and 0.83 nM, respectively.

In the case of `Cc1cc(N2C[C@H](S(=O)(=O)c3ccccc3C(F)(F)F)C[C@@H]2C(=O)NC2(C#N)CC2)n(Cc2ccccc2)n1` [Example 321, (2R,4R)-1-(2-Benzyl-5-methyl-2H-pyrazol-3-yl)-4-(2-trifluoromethyl-benzenesulfonyl)-pyrrolidine-2-carboxylic acid (1-cyano-cyclopropyl)-amide], the IC50 was at least 25000 nM on Cat L (setting [1]) and 68.3 nM on Cathepsin S (setting [2]).

Take `Cc1cc(N2C[C@H](S(=O)(=O)c3ccccc3Cl)C[C@H]2C(=O)NC2(C#N)CC2)n(C2CCCCC2)n1` [Example 477, (2S,4R)-4-(2-Chloro-benzenesulfonyl)-1-(2-cyclohexyl-5-methyl-2H-pyrazol-3-yl)-pyrrolidine-2-carboxylic acid (1-cyano-cyclopropyl)-amide]: the values for the IC50 on Cat L (setting [1]) and at Cathepsin S (setting [2]) were 318 nM and 0.6 nM, respectively.

As to `N#CC1(NC(=O)[C@@H]2C[C@@H](S(=O)(=O)c3ccc(OCC(F)(F)F)cc3Cl)CN2C(=O)C2(c3ccc(Cl)cc3)CCCCC2)CC1` [Example 314, (2S,4R)-1-[1-(4-Chloro-phenyl)-cyclohexanecarbonyl]-4-[2-chloro-4-(2,2,2-trifluoro-ethoxy)-benzenesulfonyl]-pyrrolidine-2-carboxylic acid (1-cyano-cyclopropyl)-amide], the IC50 on Cat L (setting [1]) came out at 1680 nM; on Cathepsin S (setting [2]), 0.37 nM.

Take `N#CC1(NC(=O)[C@@H]2C[C@@H](S(=O)(=O)c3ccccc3Cl)CN2CC(F)F)CC1` [Example 88, (2S,4R)-4-(2-Chloro-benzenesulfonyl)-1-(2,2-difluoro-ethyl)-pyrrolidine-2-carboxylic acid (1-cyano-cyclopropyl)-amide]: the IC50 on Cat L (setting [1]) was at least 25000 nM; on Cathepsin S (setting [2]), 275 nM.

As for `Cc1cc(-c2ccc(S(=O)(=O)[C@@H]3C[C@@H](C(=O)NC4(C#N)CC4)N(C(=O)C4(C(F)(F)F)CC4)C3)c(C(F)(F)F)c2)ccn1` [Example 248, (2S,4R)-4-[4-(2-Methyl-pyridin-4-yl)-2-trifluoromethyl-benzenesulfonyl]-1-(1-trifluoromethyl-cyclopropanecarbonyl)-pyrrolidine-2-carboxylic acid (1-cyano-cyclopropyl)-amide], the half-inhibitory concentration (IC50) on Cat L (read-out: CatL IC50; enzyme 1 nM, substrate 20 μM, pH 6.5) came to 54700 nM; at Cathepsin S (read-out: CatS IC50; enzyme 1 nM, substrate 20 μM, pH 6.5) it was 0.55 nM.

For `CS(=O)(=O)c1cccc(N2C[C@H](S(=O)(=O)c3ccccc3C(F)(F)F)C[C@H]2C(=O)NC2(C#N)CC2)c1` [Example 402, (2S,4R)-1-(3-Methanesulfonyl-phenyl)-4-(2-trifluoromethyl-benzenesulfonyl)-pyrrolidine-2-carboxylic acid (1-cyano-cyclopropyl)-amide], the values for the IC50 on Cat L (setting [1]) and on Cathepsin S (setting [2]) were at least 25000 nM and 1.4 nM, respectively.

Take `C[C@H](Oc1ccc(S(=O)(=O)[C@@H]2C[C@@H](C(=O)NC3(C#N)CC3)N(C(=O)C3(C)CC3)C2)c(Cl)c1)C(F)(F)F` [Example 199, (2S,4R)-4-[2-Chloro-4-((S)-2,2,2-trifluoro-1-methyl-ethoxy)-benzenesulfonyl]-1-(1-methyl-cyclopropanecarbonyl)-pyrrolidine-2-carboxylic acid (1-cyano-cyclopropyl)-amide]: the IC50 on Cat L (setting [1]) was found to be 7740 nM; at Cathepsin S (setting [2]), 0.5 nM.

In the case of `C[C@H](Oc1ccc(S(=O)(=O)[C@@H]2C[C@H](C(=O)NC3(C#N)CC3)N(C(=O)C(C)(C)C)C2)c(Cl)c1)C(F)(F)F` [Example 204, (2R,4R)-4-[2-Chloro-4-((S)-2,2,2-trifluoro-1-methyl-ethoxy)-benzenesulfonyl]-1-(2,2-dimethyl-propionyl)-pyrrolidine-2-carboxylic acid (1-cyano-cyclopropyl)-amide], the figures for the 50% inhibitory concentration (IC50) at Cat L (setting [1]) and at Cathepsin S (setting [2]) were at least 25000 nM and 205 nM, respectively.

With `CC(C)(C)OC(=O)N1CCC(C(=O)N2C[C@H](S(=O)(=O)c3ccccc3Cl)C[C@H]2C(=O)NC2(C#N)CC2)(c2ccc(Cl)cc2)CC1` [Example 433, tert-butyl 4-(4-chlorophenyl)-4-((2S,4R)-4-(2-chlorophenylsulfonyl)-2-(1-cyanocyclopropylcarbamoyl)pyrrolidine-1-carbonyl)piperidine-1-carboxylate], the IC50 at Cat L (setting [1]) is 945 nM; on Cathepsin S (setting [2]), 1.95 nM.

As to `N#CC1(NC(=O)[C@@H]2C[C@@H](S(=O)(=O)c3ccccc3OC(F)(F)F)CN2)CC1` [Example 13, (2S,4R)-4-(2-Trifluoromethoxy-benzenesulfonyl)-pyrrolidine-2-carboxylic acid (1-cyano-cyclopropyl)-amide Hydrochloride], the IC50 was at least 25000 nM on Cat L (setting [1]) and 46.5 nM on Cathepsin S (setting [2]).

The record behind these values is patent US8163793B2, “Proline derivatives” (Hoffman-La Roche Inc., priority 2009, dated 2012).
